{
  "source": "paper PMC7213079",
  "about": "“Hit Identification of New Potent PqsR Antagonists as Inhibitors of Quorum Sensing in Planktonic and Biofilm Grown Pseudomonas aeruginosa” (Frontiers in Chemistry, 2020)",
  "format_in_all_cases": "cell-based, Pseudomonas aeruginosa",
  "key": {"PA14": {"test_system": "PA14", "assay": "Pyocyanin quantification, PA14", "conditions": "PA14, compound at 3 x IC50, 16 h, compared with the control", "source_text": "(§1) Pyocyanin is an important virulence factor for P. aeruginosa infections and in particular respiratory and urinary tract infections. Pyocyanin is a redox-active phenazine the production of which is regulated via PqsR and PqsE (Hall et al., [2016]; Rampioni et al., [2016]; Higgins et al., [2018]). Therefore, pyocyanin production serves as an indirect readout of the activity of the pqs QS system. […] Compound 40 reduced pyocyanin production by over 80% in both strains in agreement with bioreporter assay results.\n(§2) Figure 4 Pyocyanin production by Pseudomonas aeruginosa after treatment with pqs inhibitors 8, 14, 23, 34, 25, 26, and 40. Quantification of pyocyanin production after inhibitor treatment at 3 × IC50 for both PAO1-L and PA14. The graph represents the average of three independent experiments carried out in triplicate (n = 9).\n(§3) PAO1-L Wild type PAO1, Lausanne subline. B.\n(§4) PAO1-L mCTX::PpqsA- PAO1-L with chromosomal mini-CTX::PpqsA-lux (Soukarieh lux insertion; TcR et al., 2018)\n(§5) PA14 Wild type UCBPP-PA14 (Rahme et\n(§6) PA14 mCTX::PpqsA-lux PA14 with chromosomal mini-CTX::PpqsA-lux (Soukarieh insertion; TcR et al., 2018) […]\n(§7) Pyocyanin quantification: […]\n(§8) Pyocyanin pigment was extracted into chloroform by mixing 7.5 mL of supernatant with 4.5 mL of chloroform. Pyocyanin w as further extracted into 1.5 mL of 0.2 M HCL which gave a pink/red solution and the absorbance was measured at 520 nm."}, "PAO1-L mCTX::PpqsA-lux": {"test_system": "PAO1-L mCTX::PpqsA-lux", "assay": "PpqsA-lux bioreporter assay, strain PAO1-L", "conditions": "Pseudomonas aeruginosa, PAO1, read-out: IC50 PAO1-L", "method": "In silico virtual screening was performed on the PqsR ligand binding domain (LBD) crystal structure [PDB: 4JVI; (Ilangovan et al., [2013])] using the University of Nottingham Managed Chemical Compound Collection (MCCC) containing 85,061 compounds. Molecular docking was performed using both the OpenEye docking (OpenEye Scientific Software Inc. (Hawkins et al., [2007]) and Schrödinger Suite for molecular modeling (Friesner et al., [2004]; Halgren et al., [2004]). A cut off value of the docking score function was set to -9.0 and the resulting high scoring compounds were further examined (Friesner et al., [2004]; Halgren et al., [2004]). This gave a library of around 500 diverse molecules that were evaluated using in vitro screening in a P. aeruginosa PAO1-L mCTX::PPqsA-lux reporter assay (Diggle et al., [2011]).\n(§9) To inform the structural variation of 7, crystal structures with the endogenous ligand [4-hydroxy-2-heptylquinoline (NHQ)] and the inhibitor M64 were used (Ilangovan et al., [2013]; Kitao et al., [2018]). The PqsR LBD is dominated by lipophilic interactions, therefore the current SAR exploration mainly focused on varying the aromatic tail substituents and examining the effect of 8-position substitution. The rationale for these modifications was primarily based on molecular docking studies that provided insights into the mode of binding of 7 and approaches intended to improve potency. The substituent at the para- position of the aromatic ring appeared to be crucial for biological activity due to the vital π-π stacking interaction of this group with Tyr^258. […] These strains emit light upon activation of PqsR by the endogenous production of these signal molecules. […] The results of the SAR in this assay highlight the importance of testing any prospective anti-virulence strategy on multiple genetically distinct P. aeruginosa strains as a means to reduce the chance of failure at both pre-clinical and clinical stages (Freschi et al., [2015]).\nas §3\nPAO1-L mCTX::PpqsA- PAO1-L with chromosomal mini-CTX::PpqsA-lux (Soukarieh lux insertion; TcR et al., 2018) […]\n(§10) mini-CTX::PpqsA-lux R6K-based mini-CTX suicide plasmid for the (Diggle et chromosomal insertion of a PpqsA-lux al., 2007) transcriptional reporter fusion; TcR\n(§11) Biosensor reporter assay:\n(§12) Strains PA14 mCTX::PpqsA-lux and PAO1-L mCTX::PpqsA-lux were constructed using plasmid mini-CTX::PpqsA-lux as previously described (Diggle et al., 2007) and the assay was performed according to published procedures (Fletcher et al., 2007). For screening, the compounds were tested at 10 µM concentration which was prepared from 10 mM stock in DMSO. […]"}, "PAO1-L": {"test_system": "PAO1-L", "assay": "Pyocyanin quantification, PAO1-L", "conditions": "compound at 3 x IC50, 16 h, compared with the control", "source_text": "as §1, §2, §3, §4, §5, §6, §7, §8"}, "PA14 mCTX::PpqsA-lux": {"test_system": "PA14 mCTX::PpqsA-lux", "assay": "PpqsA-lux bioreporter assay, strain PA14", "conditions": "Pseudomonas aeruginosa, PA14, read-out: IC50 PA14", "source_text": "as §9, with “[2015]). […]” for “[2015]).”\nas §6, §10, §11, §12"}, "PAO1-L biofilms": {"test_system": "PAO1-L biofilms", "assay": "Biofilm viability assay (LIVE/DEAD BacLight, CLSM)", "conditions": "6 and 24 h", "quoted_text": "PAO1-L biofilms were established for 2 days before challenging with these treatments for 6 and 24 h followed by Live/Dead staining.\nFigure 7 Bar chart showing PAO1-L biofilm viability quantified after treatment with different conditions for 6 or 24 h.\nMature pre-established P. aeruginosa PAO1-L biofilms were grown to assess the effects of co-\nFor these assays, PAO1-L biofilms were grown on round glass coverslips (8 mm, #1.5 thickness) under flow conditions (20 rpm) in FAB containing 10\nmM glucose medium inoculated with a diluted (OD600nm = 0.01) bacterial suspension from overnight\ncultures in LB. Biofilms were cultivated at 30°C for 2 days with medium replacement every day."}},
  "note": "Entries after “also recorded” stand apart in the source; their conditions may differ.",
  "data": [
    {"molecule": "Cn1c2ccccc2c2nnc(SCC(=O)Nc3ccc(Oc4ccccn4)cc3)nc21", "note": "[Compound 40, 2-((5-Methyl-5H-[1,2,4]triazino[5,6-b]indol-3-yl)thio)-N-(4-(pyridin-2-yloxy)phenyl)acetamide]", "values": [
      {"measurement": "inhibition of pyocyanin production", "setting": "PA14", "result": "over 80%"},
      {"measurement": "IC50", "setting": "PAO1-L mCTX::PpqsA-lux", "result": "250 ± 120", "unit": "nM"},
      {"measurement": "inhibition of pyocyanin production", "setting": "PAO1-L", "result": "over 80%"},
      {"measurement": "IC50", "setting": "PA14 mCTX::PpqsA-lux", "result": "340 ± 30", "unit": "nM"},
      {"measurement": "biofilm viability", "setting": "PAO1-L biofilms; pre-established PAO1-L biofilms (48 h), 40 at 10 μM", "result": "growth of the community increased; also recorded: slight increase in viability"},
      {"measurement": "biofilm killing in combination with CIP", "setting": "PAO1-L biofilms; pre-established PAO1-L biofilms, 40 10 μM combined with ciprofloxacin 60 μg/mL", "result": "did not result in an enhanced biofilm killing"}
    ]}
  ]
}
